# Data from patent US9187526B2, “Peptide based inhibition of caPCNA interaction in cancer” (priority 2006, dated 2015).
# Read-outs that look alike come from different tables or passages of the source. Where no end group is shown, it is not given here.
# How the values were obtained:
# [1] = tested on: cancer cells; test: Incubation of RYIRS-tagged caPCNA-derived peptide with cancer cells in vitro (DMSO or liposome uptake); format: cell-based; conditions: with doxorubicin
# Procedure: The peptides disclosed herein are synthesized using standard peptide synthesis procedures and equipments or can be obtained commercially (e.g., United Biochemical Research Co., Seattle, Wash.). […] Uptake of this peptide was initiated by incubation of this peptide with the cancer cells in the presence of dimethyl sulfoxide (DMSO) in either phosphate buffered saline (PBS) or culture media containing 0.2-2% DMSO, without serum for about 4-24 hours. Uptake of this peptide was also efficiently mediated by encapsulation of the peptide in a liposome formulation and subsequent incubation with the cancer cells at 37° C. for about 4-24 hours.
# [2] = tested on: caPCNA binding to caPCNA antibody (caPCNAab); test: Competition ELISA: caPCNA captured by plate-bound caPCNA antibody (caPCNAab), detected with C20 antibody; design: species or system human; conditions: increasing amounts of peptide incubated simultaneously with purified caPCNA
# Procedure: The wells are washed and then incubated with a goat anti-PCNA antibody (C20) that recognizes the C-terminal 20 amino acids of PCNA. Bound C20 antibody is visualized with an alkaline phosphatase conjugated anti-goat IgG antibody, and bound antibody complex is visualized with […], and quantified by spectrophotometry. The competition experiments shown in this study involve the simultaneous incubation of the ca(cs)PCNA with increasing amounts of the antigenic peptide fragment of caPCNA (referred to as B1 or the PCNA aa126-133 peptide) in this assay.
# The assay described in FIG. 5 was used to test the specificity of the antibody combining site for the epitope defined by PCNA aa126-133 (FIG. 6). The ELISA assay was performed as described in aim 1, however, either the B1 peptide or a peptide sequence (H-Ser-Ala-Cys-Glu-Gln-IIe-Leu-Lys-Asp-Thr-OH) (SEQ ID NO: 28) taken from within the yeast myosin protein was used to compete for the antibody in the presence of purified caPCNA.
# The ELISA described herein was used to monitor the ability of two peptides to disrupt caPCNA binding to the bound caPCNA antibody. One peptide (H-[…]OH) (SEQ ID NO: 29) corresponding to the p21cip/waf1 proteins site of interaction with PCNA was evaluated in this assay, and is shown to have no effect on the binding of caPCNA to the bound caPCNA antibody in this ELISA assay (FIG. 7). […] Therefore, the XPG peptide interacts with its recognized PCNA binding site in order to block binding of the PCNA protein to the caPCNA antibody. This happens if the epitope recognized by the antibody was masked by specifically binding this XPG peptide.
# [3] = molecular target: T1, caPCNA (Homo sapiens, UniProt P12004); test: XPG-GST fusion protein immunoprecipitation of PCNA isoforms from MCF7 cell extract, 2D-PAGE Western blot; format: binding; conditions: 30 μg MCF7 cell extract, 2 h incubation, glutathione agarose beads
# T1 construct: precipitate caPCNA selectively from the MCF7 breast cancer cell extract; endogenous in cells; host or cells: MCF7 cell extract (XPG-GST partner expressed in bacteria)
# Excerpt: MCF7 cell (human breast adenocarcinoma cell line) extracts were processed for purification of the synthesome. MCF7 derived synthesome was then subjected to chromatography steps on phosphocellulose, phenyl Sepharose, and Q-Sepharose matrices as described in (Malkas, L. and Hickey, R. (1996) The expression, purification and characterization of DNA polymerases involved in papovavirus replication. In: Methods in Enzymol Vol. 275: Viral Polymerases and Related Proteins, Acad. Press (133-167).). The Q-Sepharose eluted fraction containing both the nmPCNA and caPCNA isoforms was then loaded onto a XPG-GST affinity column. The column was eluted and both the column flow-through and eluate were subjected to 2D-PAGE Western blot analysis using PC10 antibody. The PC10 antibody was used at a dilution of 1:1000 in the Western blot analysis.
# caPCNA was specifically immunoprecipitated from a MCF7 cell extract using XPG-GST fusion protein (FIG. 3). Thirty microgram samples of MCF7 cell extract were incubated with XPG-GST fusion protein for two hours, followed by incubation with Glutathione agarose beads for one hour to capture the XPG-GST. The mixture was then centrifuged to collect the beads, and the supernatant and the agarose bead pellet containing the XPG-GST PCNA complex were subjected to 2D-PAGE Western blot analysis. The Western blots were then probed using commercially available PC10 antibody.
# [4] = tested on: breast cancer cells; test: Flow-cytometric analysis of breast cancer cells treated with peptide-containing liposomes (propidium iodide / annexin V); format: cell-based
# Procedure: Exponentially growing breast cancer cells were grown in culture media to 50% of confluence (FIG. 1). The media was then changed and liposomes that were prepared from transfection reagent (PJR) were incubated with the cells in fresh media for an additional 24 hours prior to performing flow-cytometric analysis of the treated cells.
# Liposomes contained either the carboxyl region of the p21waf1 protein, and/or the caPCNA antigenic site peptide (LGIPEQEY) (SEQ ID NO: 1). After 24 hours, the cells were stained with propidium iodide and fluorescently labeled annexin V antibody. Healthy growing cells were not permeable to the antibody as shown in lower left panel of FIG. 1, while permeabilized healthy cells susceptible to the transfection reagent, but still growing, were stained with propidium iodide. Cells staining with the annexin V antibody indicate some level of damage associated with the induction of apoptotic cells (lower right quadrant, FIG. 1), and/or cells that had died from either apoptosis or necrosis (upper right quadrant, FIG. 1). […] Cells treated with only the transfection reagent slightly affected the condition of the cells and lead to a slight increase in the number of apoptotic and necrotic cells. […] In addition, approximately 5-7% of the remaining cells appeared to be undergoing apoptosis and was slated to die.
# [5] = tested on: U937 leukemia cells; test: Cytotoxicity in U937 leukemia cell cultures, liposome-mediated peptide transfer, flow cytometry with propidium iodide and annexin V; format: cell-based
# Excerpt: Peptide fragments derived from the protein Proliferating Cell Nuclear Antigen (PCNA) are identified herein that have the ability to act, in conjunction with DNA damaging agents (e.g., doxorubicin), to enhance the therapeutic effects of such agents to treat a variety of cancer cells. The peptides are derived from the amino acid sequence within PCNA, for example, encompassing amino acids 126-133. This sequence appears to be uniquely exposed in cancer cells, but not non-cancer cells. By preventing PCNA-binding proteins, including XPG, from binding directly to caPCNA in cancer cells the effects of chemotherapeutic drugs including DNA damaging agents are enhanced. […] Exponentially growing U937 leukemia cell cultures in tissue culture media were used. A liposome mediated protein transfer technique was used wherein the caPCNA peptide (126-133) and doxorubicin were encapsulated in liposomes and added to the cell cultures at 10 μM. […] This approach produced over a 50% killing of the cultured cells within 24 hours that was peptide/drug specific, and not due to liposome mediated cytotoxicity.
# As a positive control, these leukemia cells were also incubated for several hours (either 4 or 24 hours) with a peptide derived from the p21waf protein, and as a negative control, a peptide derived from the yeast myosin protein. […] Cell killing vs. cell damage was assessed by flow cytometry using propidium iodide and annexin V staining.
# T1 sequence (P12004 whole entry, the tested form may be a part, canonical isoform): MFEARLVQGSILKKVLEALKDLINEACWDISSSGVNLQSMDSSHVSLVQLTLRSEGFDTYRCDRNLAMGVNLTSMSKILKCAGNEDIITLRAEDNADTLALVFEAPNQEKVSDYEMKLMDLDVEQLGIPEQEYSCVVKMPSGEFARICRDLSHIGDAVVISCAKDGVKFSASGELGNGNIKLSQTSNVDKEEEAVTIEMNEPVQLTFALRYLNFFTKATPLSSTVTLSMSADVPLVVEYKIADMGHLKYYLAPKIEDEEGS
compound,measurement,setting,value
LGIPEQEYRYIRS [caPCNA-derived peptide (LGIPEQEY)(RYIRS)],augmentation of cytotoxic effects of chemotherapeutic agents,[1],augments the cytotoxic effects
H-Gln-Thr-Gln-Leu-Arg-Ile-Asp-Ser-Phe-Phe-Arg-OH (H-QTQLRIDSFFR-OH) [XPG peptide],competition with caPCNA for binding to the caPCNA antibody,[2],effectively competed
H-Gly-Arg-Lys-Arg-Arg-Gln-Thr-Ser-Met-Thr-Asp-Arg-Tyr-His-Ser-Lys-Arg-Arg-Leu-Ile-Phe-Ser-OH (H-GRKRRQTSMTDRYHSKRRLIFS-OH) [p21cip/waf1 peptide (SEQ ID NO: 29)],competition with caPCNA for binding to the caPCNA antibody,[2],no effect
H-Ser-Ala-Cys-Glu-Gln-IIe-Leu-Lys-Asp-Thr-OH (H-SACEQILKDT-OH) [MAL4],competition with caPCNA for binding to the caPCNA antibody,[2],does not compete
"XPG-GST fusion protein: 29 amino acid fragment of the XPG protein coupled to Glutathione-S-transferase, expressed in bacteria (LKQLDAQQTQLRIDSFFRLAQQEKEDAKR; also: fused to glutathione-S-transferase)",selective binding/precipitation of caPCNA versus nmPCNA,[3],recognize and precipitate caPCNA selectively
"p21 peptide: peptide derived from the p21waf protein (carboxyl region of p21waf1), positive control (GRKRRQTSMTDRYHSKRRLIFS) [reference compound]",cytotoxic response (cell killing),[4],induced cell killing
same,cell kill,"[5]; U937 leukemia cells, absence of doxorubicin, incubation 4 or 24 hours",> 60%
"LGIPEQEY [caPCNA peptide (126-133), LGIPEQEY]",cytotoxic response (cell killing),"[4]; breast cancer cells, peptide alone in liposomes, 24 hours",strong cytotoxic response
same,intrinsic cytotoxicity,"[5]; U937 cells, peptide as single agent, liposome encapsulated, 10 μM",intrinsic cytotoxicity
same,increase of the cytotoxicity of doxorubicin,"[5]; U937 cells, peptide plus a range of concentrations of doxorubicin",approximately 3 fold
COc1cccc2c1C(=O)c1c(O)c3c(c(O)c1C2=O)C[C@@](O)(C(=O)CO)C[C@@H]3O[C@H]1C[C@H](N)[C@H](O)[C@H](C)O1 [doxorubicin],cell killing,"[4]; breast cancer cells, low doses of doxorubicin alone",significant level of cell killing
